Assay results from patent US20180162862A1 (President and Fellows of Harvard College, priority 2015, published 2018).
≈ marks a conversion by molar mass, not a printed value. Like-named read-outs stand apart in the source and are kept apart here.

Key:
Assay type in all cases: cell-based
[1] = tested on: S. aureus Newman; experiment: MIC test according to CLSI M7-A9, S. aureus Newman; conditions: Staphylococcus aureus, CLSI M7-A9, CAMHB, 24 h (Table 3), read-out: S. aureus ATCC Newman MIC
Experimental: (§1) MIC Test (S. aureus ATCC 29213, S. aureus ATCC 43300 and S. aureus Newman)
(§2) Susceptibility testing of S. aureus ATCC 29213, ATCC 43300 and Newman was performed according to Clinical Laboratory Standard Institute (CLSI) guidelines M7-A9. Test articles were stored at room temperature prior to use, then dissolved in filtered sterile DMSO. Stock DMSO solutions were diluted further in cation-adjusted Mueller Hinton broth (CAMHB) to provide appropriate test concentrations. Cultures of S. aureus (ATCC 29213, ATCC 43300 or Newman) were added in accordance with CLSI guidelines and plates incubated at 37° C. in air for 24 h. Endpoints were determined visually (and by spectrophotometer at 600 nm) and the minimum inhibitory concentration (MIC) defined as the lowest concentration of test articles resulting in complete inhibition of visible bacterial growth. Results are detailed in Table 2 (S. aureus ATCC 29213 and ATCC 43300) and Table 3 (S. aureus ATCC 29213, ATCC 43300 and Newman).

[2] = tested on: S. aureus ATCC 29213; experiment: MIC test according to CLSI M7-A9, S. aureus ATCC 29213; conditions: Staphylococcus aureus
Experimental: as §1, §2

[3] = tested on: S. aureus ATCC 43300; experiment: MIC test according to CLSI M7-A9, S. aureus ATCC 43300; conditions: Staphylococcus aureus, read-out: S. aureus ATCC 43300 MIC at 24 h
Experimental: as §1, §2

[4] = ATCC29213, CLSI M7-A9, CAMHB, 24 h (Table 3), read-out: S. aureus ATCC 29213 MIC
[5] = ATCC29213, CLSI M7-A9, CAMHB, 24 h (Table 2), read-out: S. aureus ATCC 29213 MIC at 24 h
[6] = ATCC43300, CLSI M7-A9, CAMHB, 24 h (Table 2)

Compound	MIC [2, 5] [mg/L]	MIC [3, 6] [mg/L]	further results
CC(C)(C)c1ccc(-c2nc(NCC(F)(F)CNC3Cc4ccccc4C3)n3[nH]c(=O)cc3n2)cc1 [Example 89, 2-(4-tert-Butylphenyl)-4-({3-[(2,3-dihydro-1H-inden-2-yl)amino]-2,2-difluoropropyl}amino)-6H,7H-pyrazolo[1,5-a][1,3,5]triazin-7-one]			MIC [1]: 8 mg/L (≈ 16.2 µM); MIC [2, 4]: 8 mg/L (≈ 16.2 µM)
Cc1cc(OCCCN(CCCN(C)C)c2nc(-c3ccc(C(C)(C)C)cc3)nc3cc(=O)[nH]n23)ccc1Cl [Example 86, 2-(4-tert-butylphenyl)-4-{[3-(4-chloro-3-methylphenoxy)propyl][3-(dimethylamino)propyl]amino}-6H,7H-pyrazolo[1,5-a][1,3,5]triazin-7-one]			MIC [1]: 1 mg/L (≈ 1.81 µM); MIC [2, 4]: 2 mg/L (≈ 3.63 µM)
O=c1[nH]n2c(NCCCNC3Cc4ccccc4C3)nc(C34CC5CC(CC(C5)C3)C4)nc2c1Cc1ccccc1 [Example 125, 2-(adamantan-1-yl)-8-benzyl-4-({3-[(2,3-dihydro-1H-inden-2-yl)amino]propyl}amino)-6H,7H-pyrazolo[1,5-a][1,3,5]triazin-7-one]			MIC [1]: 1 mg/L (≈ 1.82 µM); MIC [2, 4]: 2 mg/L (≈ 3.64 µM)
CC(C)(C)c1ccc(-c2nc(NC3CCN(C(=O)c4nnc[nH]4)CC3)n3[nH]c(=O)cc3n2)cc1 [Example 64, 2-(4-tert-butylphenyl)-4-{[11-(4H-1,2,4-triazole-3-carbonyl)piperidin-4-yl]amino}-6H,7H-pyrazolo[1,5-a][1,3,5]triazin-7-one]	128 (≈ 277 µM)	> 128	
CC(C)(O)CNc1nc(-c2ccc(C(C)(C)C)cc2)nc2cc(=O)[nH]n12 [Example 26, 2-(4-tert-butylphenyl)-4-[(2-hydroxy-2-methylpropyl)amino]-6H,7H-pyrazolo[1,5-a][1,3,5]triazin-7-one]	32 (≈ 90 µM)	32 (≈ 90 µM)	
Cc1ccc(S(=O)(=O)CCCNc2nc(-c3ccc(C(C)(C)C)cc3)nc3cc(=O)[nH]n23)cc1C [Example 58, 2-(4-tert-butylphenyl)-4-{[3-(3,4-dimethylbenzenesulfonyl)propyl]amino}-6H,7H-pyrazolo[1,5-a][1,3,5]triazin-7-one]	64 (≈ 130 µM)	64 (≈ 130 µM)	
CN(C)CCNc1nc(-c2ccc(C(C)(C)C)cc2)nc2cc(=O)[nH]n12 [Example 25, 2-(4-tert-butylphenyl)-4-{[2-(dimethylamino)ethyl]amino}-6H,7H-pyrazolo[1,5-a][1,3,5]triazin-7-one]	64 (≈ 181 µM)	32 (≈ 90.3 µM)	
CC(C)(C)c1ccc(-c2nc(NCCCNC3CCCCC3)n3[nH]c(=O)cc3n2)cc1 [Example 39, 2-(4-tert-butylphenyl)-4-{[3-(cyclohexylamino)propyl]amino}-6H,7H-pyrazolo[1,5-a][1,3,5]triazin-7-one]	32 (≈ 75.7 µM)	32 (≈ 75.7 µM)	
Cc1ccc(-c2nc(NC3CCN(Cc4ccccc4)CC3)n3[nH]c(=O)cc3n2)cc1 [Example 69, 4-[(1-benzylpiperidin-4-yl)amino]-2-(4-methylphenyl)-6H,7H-pyrazolo[1,5-a][1,3,5]triazin-7-one]	32 (≈ 77.2 µM)	> 32	
CCCCN(C)c1nc(-c2ccc(C(C)(C)C)cc2)nc2cc(=O)[nH]n12 [Example 34, 4-[butyl(methyl)amino]-2-(4-tert-butylphenyl)-6H,7H-pyrazolo[1,5-a][1,3,5]triazin-7-one]	16 (≈ 45.3 µM)	16 (≈ 45.3 µM)	
CC(C)(C)c1ccc(-c2nc(NCCCn3ccncc3=O)n3[nH]c(=O)cc3n2)cc1 [Example 51, 1-(3-{[2-(4-tert-butylphenyl)-7-oxo-6H,7H-pyrazolo[1,5-a][1,3,5]triazin-4-yl]amino}propyl)-1,2-dihydropyrazin-2-one]	> 64	> 64	
CC(C)(C)c1ccc(-c2nc(N3CCC(O)CC3)n3[nH]c(=O)cc3n2)cc1 [Example 20, 2-(4-tert-butylphenyl)-4-(4-hydroxypiperidin-1-yl)-6H,7H-pyrazolo[1,5-a][1,3,5]triazin-7-one]	64 (≈ 174 µM)	128 (≈ 348 µM)	
CC(C)(C)c1ccc(-c2nc(NCCCOc3cnccn3)n3[nH]c(=O)cc3n2)cc1 [Example 50, 2-(4-tert-butylphenyl)-4-{[3-(pyrazin-2-yloxy)propyl]amino}-6H,7H-pyrazolo[1,5-a][1,3,5]triazin-7-one]	> 32	> 32	
CC(C)(C)c1ccc(-c2nc(NC3CCN(C(=O)c4ccccc4)CC3)n3[nH]c(=O)cc3n2)cc1 [Example 63, 4-[(1-benzoylpiperidin-4-yl)amino]-2-(4-tert-butylphenyl)-6H,7H-pyrazolo[1,5-a][1,3,5]triazin-7-one]	32 (≈ 68 µM)	128 (≈ 272 µM)	
CN1CCN(c2nc(-c3ccc(C(C)(C)C)cc3)nc3cc(=O)[nH]n23)CC1 [Example 18, 2-(4-tert-butylphenyl)-4-(4-methylpiperazin-1-yl)-6H,7H-pyrazolo[1,5-a][1,3,5]triazin-7-one]	64 (≈ 175 µM)	64 (≈ 175 µM)	
CC(C)(C)c1ccc(-c2nc(NCCCn3ccnc3)n3[nH]c(=O)cc3n2)cc1 [Example 24, 2-(4-tert-butylphenyl)-4-{[3-(1H-imidazol-1-yl)propyl]amino}-6H,7H-pyrazolo[1,5-a][1,3,5]triazin-7-one]			MIC ([2]; ATCC29213, 24 h, read-out: S. aureus ATCC 29213 MIC at 24 h): 64 mg/L (≈ 163 µM); MIC ([3]; ATCC43300, 24 h): 64 mg/L (≈ 163 µM)
CC(C)(C)c1ccc(-c2nc(NCCCOc3ccccc3)n3[nH]c(=O)cc3n2)cc1 [Example 33, 2-(4-tert-butylphenyl)-4-[(3-phenoxypropyl)amino]-6H,7H-pyrazolo[1,5-a][1,3,5]triazin-7-one]	8 (≈ 19.2 µM)	8 (≈ 19.2 µM)	

Further molecules by falling MIC [2, 5], results first:

MIC [2, 5] [mg/L]	MIC [3, 6] [mg/L]	Compound	further results
8 (≈ 21.9 µM)	8 (≈ 21.9 µM)	CC(C)(C)c1ccc(-c2nc(NC3CCCCC3)n3[nH]c(=O)cc3n2)cc1 [Example 36, 2-(4-tert-butylphenyl)-4-(cyclohexylamino)-6H,7H-pyrazolo[1,5-a][1,3,5]triazin-7-one]	
8 (≈ 23.4 µM)	32 (≈ 93.7 µM)	CC(C)(C)c1ccc(-c2nc(NCCCO)n3[nH]c(=O)cc3n2)cc1 [Example 22, 2-(4-tert-butylphenyl)-4-[(3-hydroxypropyl)amino]-6H,7H-pyrazolo[1,5-a][1,3,5]triazin-7-one]	
8 (≈ 19.2 µM)	8 (≈ 19.2 µM)	CC(C)(C)c1ccc(-c2nc(NCCCNc3ccccc3)n3[nH]c(=O)cc3n2)cc1 [Example 43, 2-(4-tert-butylphenyl)-4-{[3-(phenylamino)propyl]amino}-6H,7H-pyrazolo[1,5-a][1,3,5]triazin-7-one]	
8 (≈ 17.5 µM)	8 (≈ 17.5 µM)	CC(C)(C)c1ccc(-c2nc(NC3CCN(Cc4ccccc4)CC3)n3[nH]c(=O)cc3n2)cc1 [Example 35, 4-[(1-benzylpiperidin-4-yl)amino]-2-(4-tert-butylphenyl)-6H,7H-pyrazolo[1,5-a][1,3,5]triazin-7-one]	
4 (≈ 8.15 µM)	16 (≈ 32.6 µM)	Cc1cc(N2CCC(Nc3nc(-c4ccc(C(C)(C)C)cc4)nc4cc(=O)[nH]n34)CC2)ccc1Cl [Example 62, 2-(4-tert-butylphenyl)-4-{[1-(4-chloro-3-methylphenyl)piperidin-4-yl]amino}-6H,7H-pyrazolo[1,5-a][1,3,5]triazin-7-one]	
4 (≈ 9.96 µM)	4 (≈ 9.96 µM)	CC(C)(C)c1ccc(-c2nc(NCCCc3ccccc3)n3[nH]c(=O)cc3n2)cc1 [Example 23, 2-(4-tert-butylphenyl)-4-[(3-phenylpropyl)amino]-6H,7H-pyrazolo[1,5-a][1,3,5]triazin-7-one]	
4 (≈ 8.39 µM)	8 (≈ 16.8 µM)	Cc1cc(NCC2CN(c3nc(-c4ccc(C(C)(C)C)cc4)nc4cc(=O)[nH]n34)C2)ccc1Cl [Example 57, 2-(4-tert-butylphenyl)-4-(3-{[(4-chloro-3-methylphenyl)amino]methyl}azetidin-1-yl)-6H,7H-pyrazolo[1,5-a][1,3,5]triazin-7-one]	
4 (≈ 8.15 µM)	4 (≈ 8.15 µM)	Cc1cc(NC2CCN(c3nc(-c4ccc(C(C)(C)C)cc4)nc4cc(=O)[nH]n34)CC2)ccc1Cl [Example 54, 2-(4-tert-butylphenyl)-4-{4-[(4-chloro-3-methylphenyl)amino]piperidin-1-yl}-6H,7H-pyrazolo[1,5-a][1,3,5]triazin-7-one]	
4 (≈ 8.3 µM)	8 (≈ 16.6 µM)	Cc1cc(OCC(O)CNc2nc(-c3ccc(C(C)(C)C)cc3)nc3cc(=O)[nH]n23)ccc1Cl (stereo not drawn) [Example 60, 2-(4-tert-butylphenyl)-4-{[3-(4-chloro-3-methylphenoxy)-2-hydroxypropyl]amino}-6H,7H-pyrazolo[1,5-a][1,3,5]triazin-7-one]	
4 (≈ 8.33 µM)	4 (≈ 8.33 µM)	Cc1cc(OCCC(C)Nc2nc(-c3ccc(C(C)(C)C)cc3)nc3cc(=O)[nH]n23)ccc1Cl (stereo not drawn) [Example 65, 2-(4-tert-butylphenyl)-4-{[4-(4-chloro-3-methylphenoxy)butan-2-yl]amino}-6H,7H-pyrazolo[1,5-a][1,3,5]triazin-7-one]	
